# In patent US20040048900A1, “Nicotine and/or nicotine agonists for the treatment of general anesthetic effects and side effects” (priority 2002, published 2004):
# What was measured:
# [1] = system: norepinephrine levels in brain and spinal cord; experiment: HPLC of norepinephrine, 5-HT, dopamine and metabolites after DSP-4; assay type: in vivo, mice; conditions: DSP4-treated n = 2
# Description: (§1) How could nicotinic inhibition cause hyperalgesia? Nicotine is thought to exert its analgesic action by increasing the release of norepinephrine, serotonin and acetylcholine onto the relay neurons in the dorsal horn of the spinal cord (Rao, 1996; and Reuter, 2000). Isoflurane might reduce pain threshold by inhibiting nicotinic acetylcholine receptors tonically active in potentiating the release of norepinephrine, serotonin and/or acetylcholine. To test the role of the α-adrenergic system, mice were treated systemically with the adrenergic neurotoxin DSP-4 to deplete norepinephrine levels (Jonsson, 1981). The DSP-4 mice 14 days after treatment were tested for HPWL in the presence of isoflurane alone or isoflurane with nicotine pretreatment (see methods).
# The HPLC procedures were conducted according to the methods described by Underwood et al. (Underwood, 1999).
# [2] = Qian, 1993; Badio, 1994; cited from earlier work
# mice [3] = system: mice
# Description: Nicotinic acetylcholine receptors are involved in the mechanism of isoflurane hyperalgesia, and nicotinic inhibition could be the initiating event.
# as §1
# To test the role of muscarinic receptors for acetylcholine, mice were treated with the nonspecific muscarinic antagonist, atropine. A cholinergic neurotoxin could not be used for these studies, because removing all cholinergic neurons would have nicotinic in addition to muscarinic effects. Instead, postsynaptic muscarinic blockade was used. ACh causes analgesia, at least in part due to muscarinic stimulation (Chiari, 1999; Smith, 1989; and Lavand'homme, 1999). […] High concentrations of atropine can block nicotinic acetylcholine receptors as well (Zwart, 1997).
# in vivo = conditions: female, mouse, plasma, 5 mg/kg
# Description: (§2) The duration of mecamylamine's action was tested with two control experiments. First, 5 mice were injected with mecamylamine 5 mg/kg IP or saline. These mice were then tested at 1-hour intervals with nicotine 1 mg/kg IP. […] Mecamylamine plasma concentration was measured in 5 female mice, 1 hour after I.P. injection using a combination of Gas Chromatography and Mass Spectroscopy described by Jacob et al. (Jacob, 2000).
# mice [4] = experiment: Nicotine-induced prostration, duration of mecamylamine blockade
# Description: as §2
# [5] = target: T1, human α4β2 nAChRs expressed in Xenopus oocytes (Homo sapiens, UniProt P17787+P43681); experiment: Two-microelectrode voltage clamp of ACh-activated currents in Xenopus oocytes; assay type: cell-based
# T1 construct: expressed in transfected cells; host or cells: Xenopus laevis oocytes injected with cRNA (1:1 α4 to β2)
# Description: The human α4 and β2 type nAChRs were in a pSP64 expression vector. Standard techniques were used to linearize the vectors and use them as templates to make cRNA using SP6 as the polymerase. The human nicotinic clones were a gift from Dr. Jon Lindstrom, Ph.D. (Department of Neuroscience, University of Pennsylvania, Philadelphia, Pa.).
# Xenopus laevis oocytes were removed from the females and defolliculated with collagenase. After the oocytes rested for 24 hours in L-15 oocyte medium, about 10 ng of a 1:1 ratio of α4 to β2 cRNA were injected into individual oocytes. A manual injector was used for this process (Nanoject; Drummond Scientific, Broomall, Pa.). The oocytes were incubated for 2-5 days in ND-96 medium (NaCl 96 mM, KCl 2 mM, MgCl2 1 mM, CaCl2 H2O 1.8 mM, HEPES 5 mM, Na-pyruvate 2.5 mM, theophylline 0.5 mM, and 10mg/L of gentamicin, adjusted to pH 7.5).
# Whole oocytes were used to record currents using a Gene-Clamp 500 two-microelectrode voltage-clamp amplifier with an active ground (Axon Instruments, Inc., Foster, Cailf.). The recording electrodes were pulled from glass capillary tubing (Drummond, Broomall, Pa.) to obtain a resistance between 1 and 5 MΩ and filled with 3M KCl. Ba^2 Ringer's solution was used as the extracellular solution in order to avoid current amplification by calcium activated chloride currents (115 mM NaCl, 2.5 mM KCl, 1.8 mM BaCl2, 10 mM HEPES, 1 μM atropine, pH 7.4). Atropine was included to avoid activation of intrinsic muscarinic receptors. Experiments were performed at room temperature. Isoflurane was prepared from a saturated solution by serial dilution. Concentrations were verified by gas chromatography.
# Oocytes were tested at a membrane potential of −60 mV. Bolus application of the agonist +/− indicated antagonist(s) was applied at a rate of 4 ml/min for a 2 second application.
# Antagonists were pre-applied for 2 minutes prior to activation. Concentration response curves were made from the percent change in peak current from ACh activation in the presence of antagonist(s), compared to ACh alone. As the ACh concentration at central neuronal nAChRs is unknown, 1 mM ACh (saturating) was used to detect inhibition by isoflurane and mecamylamine experiments with mecamylamine. ACh 2 μM was used to detect potentiation by nicotine. Currents were measured in 5-8 cells for each data point. Clampex 7 (Axon instruments, Foster City, Calif.) was used for data acquisition.
# Microcal Origins 5.0 (Microcal, Northampton, Mass.) was used for statistical calculations and graphical presentation. The in vitro data were fit to a modified Hill equation, y=100/(1+(x/IC50)^n), where IC50 is the concentration of drug at which of 50% of the response is inhibited and n is the Hill coefficient.
# seizures induced by NMDA = conditions: McDonough, 1995; cited from earlier work
# NMDA = conditions: O'Dell, 1988; Papke, 2001; cited from earlier work
# [6] = nicotine 1 mg/kg, Thompson, 1982, cited from earlier work
# non-smoking volunteers = conditions: cited from earlier work
# [7] = system: ^3H-norepinephrine release from female mouse lumbar spinal cord slice; experiment: 3H-norepinephrine release from superfused spinal cord slice; conditions: 1 mM nicotine in perfusion buffer, p<0.02
# Description: Spinal Cord Slice Preparation: The spinal cord was dissected from the mouse. Under CO2 narcosis the mouse was decapitated. The spinal column was removed and placed into cold dissection solution where the spinal cord was removed with a dissection microscope. The lumbar section of the cord was isolated and imbedded in a 3% low melting point agar (Fisher Scientific) block made in dissection solution. Transverse 400 micrometer slices were made using a Vibratone VT1000S slicing apparatus (Leica, Whetzlar, Germany). Slicing was performed in ice cold Krebs solution bubbled with 5%CO2/95%O2.
# The cord slices were incubated in a solution of 1 ml of Krebs solution and 10 ul of 1-[7,8-^3H] noradrenaline in a closed environment surrounded by Krebs solution bubbled with CO2/O2 for 30 minutes. The slices were transferred into a superfusion and stimulation chamber (Warner Instruments Inc.,) where Krebs solution was allowed to perfuse over them for 30 minutes at a rate of 0.5 ml/min. The superfusion chamber thermostatically temperature controlled at 37° C. The solutions were pumped to the chamber at a constant rate of 0.5 ml/min using a Kwik-Pump 290 (Long). Following a 30 minute period for equilibration, collections were taken every 1-2.5 minutes. Ecolite scintillation fluid (15 ml) was then added to each collection vial. The samples were analyzed for radioactivity (CPM) using a Packard TRI CARB 2100 TR scintillation counter (Meriden, Conn.).
# Dissection Krebs Solution (mM) NaCl 125, KCl 2.5, NaHCO3 26, NaH2PO4-H2O1.25, MgCl2 6,CaCl2 1.5, glucose 2.5. Perfusion Krebs Solution (mM) NaCl 125, KCl 2.5, NaHCO3 26, NaH2PO4—H2O 1.25, MgCl2 1,CaCl2 2, glucose 2.5.
# After incubation with ^3H-norepinephrine, the cord slices were perfused with buffer for 30 minutes at 0.5 ml/minute. After equilibration, samples containing released ^3H-norepinephrine were collected at 2.5 minute intervals. After determination of baseline release, the slices were stimulated with 1 mM nicotine in the perfusion buffer.
# [8] = system: women having pelvic surgery
# Description: In a double blind, randomized trial of women having pelvic surgery with an isoflurane anesthetic, either nicotine (nasal spray, 3 mg) or saline placebo was administered just prior to emergence from anesthesia. Postoperative pain was assessed using the visual analog scale (VAS). In the VAS, patients are asked how much pain they have on a scale from 0-10 where 0 is no pain and 10 is the worst pain imaginable. All patients had access to essentially unlimited morphine in a PCA pump as is routine after this type of surgery.
# [9] = 3 mg intranasally, Fishbein, 2000
# [10] = 3 mg intranasally, Guthrie, 1999
# T1 sequence (P43681 29-627 limits assumed): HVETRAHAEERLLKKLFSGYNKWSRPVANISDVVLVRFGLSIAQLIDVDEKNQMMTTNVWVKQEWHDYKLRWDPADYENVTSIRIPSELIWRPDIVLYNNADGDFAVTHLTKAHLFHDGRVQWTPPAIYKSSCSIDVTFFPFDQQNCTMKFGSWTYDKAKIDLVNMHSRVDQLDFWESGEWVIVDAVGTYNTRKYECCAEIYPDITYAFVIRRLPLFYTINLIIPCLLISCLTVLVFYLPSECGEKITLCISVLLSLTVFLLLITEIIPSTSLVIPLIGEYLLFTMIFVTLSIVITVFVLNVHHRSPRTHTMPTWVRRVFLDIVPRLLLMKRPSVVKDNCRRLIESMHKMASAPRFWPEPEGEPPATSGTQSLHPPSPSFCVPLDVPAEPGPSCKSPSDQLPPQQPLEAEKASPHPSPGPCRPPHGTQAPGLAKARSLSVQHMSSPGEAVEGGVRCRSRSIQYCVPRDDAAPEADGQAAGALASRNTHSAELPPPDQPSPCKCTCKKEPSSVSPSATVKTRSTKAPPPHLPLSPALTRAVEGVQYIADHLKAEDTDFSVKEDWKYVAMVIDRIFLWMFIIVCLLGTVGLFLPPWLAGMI
# T1 sequence (P17787 26-502): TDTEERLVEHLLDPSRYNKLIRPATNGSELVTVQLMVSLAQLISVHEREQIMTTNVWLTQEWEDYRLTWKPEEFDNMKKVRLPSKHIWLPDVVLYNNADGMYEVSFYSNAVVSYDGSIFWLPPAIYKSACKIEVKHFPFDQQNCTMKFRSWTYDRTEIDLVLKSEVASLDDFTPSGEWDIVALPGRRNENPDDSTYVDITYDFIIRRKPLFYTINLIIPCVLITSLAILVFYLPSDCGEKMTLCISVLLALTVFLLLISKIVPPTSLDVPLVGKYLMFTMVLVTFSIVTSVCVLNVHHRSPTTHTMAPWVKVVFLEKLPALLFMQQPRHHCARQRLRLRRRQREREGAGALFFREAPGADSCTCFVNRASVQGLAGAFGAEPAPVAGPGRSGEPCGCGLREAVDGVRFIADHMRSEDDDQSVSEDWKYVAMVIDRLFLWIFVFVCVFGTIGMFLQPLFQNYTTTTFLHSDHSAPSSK
smiles,measurement,setting,value
CCN(CCCl)Cc1ccccc1Br [DSP4],MHPG concentration (HPLC),"[1]; Brain Stem, control 253.3",104.9
same,HVA concentration (HPLC),"[1]; Brain Stem, control 300.1",275.2
same,DA concentration (HPLC),"[1]; Brain Stem, control 599.2",621.0
same,DOPAC concentration (HPLC),"[1]; Brain Stem, control 662.4",494.6
same,NE concentration (HPLC),"[1]; Brain Stem, control 1044.1",811.2
same,5-HT concentration (HPLC),"[1]; Brain Stem, control 2336.9",2140.3
same,5HIAA concentration (HPLC),"[1]; Brain Stem, control 2972.1",2746.9
same,HVA concentration (HPLC),"[1]; Medulla, control 118.5",88.0
same,DA concentration (HPLC),"[1]; Medulla, control 168.7",138.2
same,MHPG concentration (HPLC),"[1]; Medulla, control 194.5",139.3
same,DOPAC concentration (HPLC),"[1]; Medulla, control 248.3",196.0
same,5-HT concentration (HPLC),"[1]; Medulla, control 1152.5",1054.9
same,5HIAA concentration (HPLC),"[1]; Medulla, control 1184.1",1302.6
same,NE concentration (HPLC),"[1]; Medulla, control 1408.8",812.0
same,HVA concentration (HPLC),"[1]; Pons, control 100.7",181.6
same,DA concentration (HPLC),"[1]; Pons, control 128.1",379.6
same,MHPG concentration (HPLC),"[1]; Pons, control 235.9",122.1
same,DOPAC concentration (HPLC),"[1]; Pons, control 341.8",345.3
same,5-HT concentration (HPLC),"[1]; Pons, control 996.8",1597.6
same,5HIAA concentration (HPLC),"[1]; Pons, control 1334.6",2024.7
same,NE concentration (HPLC),"[1]; Pons, control 1345.9",811.6
same,HVA concentration (HPLC),"[1]; Spinal cord, control 38.2",23.0
same,MHPG concentration (HPLC),"[1]; Spinal cord, control 82.5",62.6
same,DOPAC concentration (HPLC),"[1]; Spinal cord, control 136.4",118.8
same,DA concentration (HPLC),"[1]; Spinal cord, control 182.6",210.9
same,NE concentration (HPLC),"[1]; Spinal cord, control 798.8",587.6
same,5HIAA concentration (HPLC),"[1]; Spinal cord, control 1057.9",1111.3
same,5-HT concentration (HPLC),"[1]; Spinal cord, control 1122.1",808.6
Clc1ccc(C2CC3CCC2N3)cn1 (stereo not drawn) [Epibatidine],potency for analgesia relative to morphine,[2],approximately 200 times
CN1[C@@H]2CC[C@H]1C[C@@H](OC(=O)C(CO)c1ccccc1)C2 (stereo partly drawn) [atropine],effect on hyperalgesic response to isoflurane,mice [3]; atropine 5 mg/kg,had no effect on the hyperalgesic response to isoflurane
same,minimum concentration that caused baseline hyperalgesia,"mice [3]; mouse, in vivo",5 mg/kg
CNC1(C)C2CCC(C2)C1(C)C (stereo not drawn) [mecamylamine],concentration at 1 h,in vivo; intraperitoneal,200 ± 70 nM
same,concentration at 1 h,in vivo; ip,203 nM
same,duration of blockade of prostration from nicotine 1 mg/kg IP,"mice [4]; mecamylamine 5 mg/kg IP, tested at 1-hour intervals",up to 4 hours
same,mode of antagonism at heteromeric nAChRs,[5],non-competitive antagonists
same,IC50,"[5]; 1 mM ACh, −60 mV, room temperature, read-out: IC50 for inhibition of α4β2 nAChR",290 ± 50 nM
same,interaction of mecamylamine and isoflurane applied together (isobolographic analysis),[5]; inhibition of α4β2 nAChR activation,within the 95% confidence intervals for additivity
same,ED50 for inhibition of seizures induced by NMDA,seizures induced by NMDA,12 ± 3.2 mg/kg
same,concentration range with NMDA antagonist properties,NMDA,~100 µM
"CN1CCC[C@H]1c1cccnc1 [nicotine, (s)-(−)-nicotine]",detectability by HPLC at 40 minutes,[6],undetectable by HPLC at 40 minutes
same,peak concentration,[6]; at 5 minutes,approximately 2 μM
same,average increase in systolic blood pressure,non-smoking volunteers; [9],7 mM of mercury
same,diastolic blood pressure or heart rate,non-smoking volunteers; [9],no change
same,arterial peak concentration,non-smoking volunteers; [10],100 µM
same,steady state venous concentration,non-smoking volunteers; [10],30 µM
same,time of peak effect,non-smoking volunteers; intranasal nicotine,peak effect in five minutes
same,time until effect is dissipated,non-smoking volunteers; intranasal nicotine,dissipated in about one hour
same,time until mice lay prone,"mice [4]; nicotine 1 mg/kg IP, mice not pretreated with mecamylamine",≤ 5 min
same,release of ^3H-norepinephrine,[7],caused an increase in the release of ^3H-norepinephrine
same,current relative to ACh 2 μM alone in presence of isoflurane,"[5]; ACh 2 μM nicotine 2 μM, given concentration of isoflurane",always larger
same,current relative to ACh alone,[5]; nicotine 2 μM added to ACh 2 μM,produces a larger current than ACh alone
same,analgesia by ICV nicotine,"mice [3]; mouse, in vivo",caused significant analgesia both in the presence and absence of isoflurane
same,effect of ICV nicotine on isoflurane hyperalgesia,"mice [3]; mouse, in vivo",did not prevent hyperalgesia with isoflurane
same,protection against isoflurane hyperalgesia in presence of atropine,"mice [3]; nicotine 1 mg/kg, atropine 5 mg/kg",remained protective against the hyperalgesia
same,effect on HPWL in DSP-4 treated mice,"mice [3]; nicotine pretreatment, baseline or isoflurane",without effect
same,ill effects,[8]; nicotine nasal spray 3 mg,no severe ill effects
same,"postoperative pain, VAS scores",[8]; nicotine nasal spray 3 mg prior to emergence vs saline placebo,significantly lower VAS scores
same,heart rate,[8]; nicotine nasal spray 3 mg vs placebo,higher heart rates
same,morphine used in the first hour (PCA pump),"[8]; nicotine nasal spray 3 mg, placebo 12 mg",4 mg
same,blood pressures,[8]; with or without nicotine,not different
